Measured values as given in paper PMC9822400, “The Lipophilic Purine Nucleoside—Tdp1 Inhibitor—Enhances DNA Damage Induced by Topotecan In Vitro and Potentiates the Antitumor Effect of Topotecan In Vivo” (Molecules, 2022).
“Also recorded” adds a separate entry of the source.

Tests used:
Format in all cases: biochemical
[1] = target: T1, purified recombinant human Tdp1 (Homo sapiens, UniProt Q9NUW8); test: Real-time detection of Tdp1 activity (removal of BHQ1 from a 5′-FAM 16-nt oligonucleotide, fluorescence); details: 1.5 nM Tdp1, 50 nM oligonucleotide, 25 °C, three independent experiments
T1 construct: made in house
T1 sequence (Q9NUW8 whole entry): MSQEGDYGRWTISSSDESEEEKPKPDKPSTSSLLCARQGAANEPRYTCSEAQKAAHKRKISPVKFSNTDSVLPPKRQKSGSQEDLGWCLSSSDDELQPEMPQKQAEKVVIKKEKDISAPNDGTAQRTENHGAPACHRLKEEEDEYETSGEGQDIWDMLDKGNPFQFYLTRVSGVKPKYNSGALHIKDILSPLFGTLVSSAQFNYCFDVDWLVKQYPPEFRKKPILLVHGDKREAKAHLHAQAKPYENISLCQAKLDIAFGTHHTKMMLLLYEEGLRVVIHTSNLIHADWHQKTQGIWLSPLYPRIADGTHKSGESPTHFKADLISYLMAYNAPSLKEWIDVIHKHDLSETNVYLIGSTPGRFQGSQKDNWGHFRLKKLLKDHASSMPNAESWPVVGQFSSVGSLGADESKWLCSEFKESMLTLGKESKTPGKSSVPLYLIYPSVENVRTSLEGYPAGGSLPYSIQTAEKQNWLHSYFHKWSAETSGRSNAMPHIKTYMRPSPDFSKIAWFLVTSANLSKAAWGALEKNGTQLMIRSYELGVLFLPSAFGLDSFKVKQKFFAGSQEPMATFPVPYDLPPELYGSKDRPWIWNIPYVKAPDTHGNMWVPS
Procedure: In this work, four natural nucleosides (1-4) and […] aromatic lipophilic derivatives of purine nucleosides (5a-f, 6a-d) were tested for Tdp1 activity. The used test system was based on the enzyme’s ability to remove Black Hole Quencher 1 (BHQ1) from the 3′ end of a 5′ FAM 16-nt oligonucleotide. As a result, an increase in FAM fluorescence was detected and the obtained kinetic curves were used to calculate the IC50 parameter (the concentration of the inhibitor at which the enzyme activity is reduced by half). We have found potent Tdp1 inhibitors with IC50 in the range from 0.3 to 7 μM (Table 1).
Purified human recombinant Tdp1 was prepared as described earlier. Real-time detection of Tdp1 activity was reported in our previous work. The approach consists of a fluorescence intensity measurement of the reaction of quencher removal from the fluorophore-quencher coupled DNA oligonucleotide catalyzed by Tdp1 in the presence of the inhibitor (the control samples contained 1% DMSO). The biosensor was single-stranded oligonucleotide (5′-[FAM] AAC GTC AGGGTC TTC C [BHQ]-3′) containing fluorophore at the 5′ end (5,6-FAM) and a Black Hole Quencher 1 (BHQ) at the 3′ end, and was synthesized in the Laboratory of nucleic acid chemistry at the Institute of Chemical Biology and Fundamental Medicine SB RAS, Novosibirsk, Russia. The reactions were incubated at a constant temperature 25 °C in a POLARstar OPTIMA fluorimeter, BMG LABTECH, GmbH, to measure fluorescence every 55 s (Ex485/Em520 nm) during the linear phase (here, the data are from 0 to 8 min). […] The IC50 values were determined using a six-point concentration response curve in three independent experiments and calculated using MARS Data Analysis 2.0 (BMG LABTECH).

human recombinant PARP2 = target: T2, human recombinant PARP2 (Homo sapiens, UniProt Q9UGN5); test: PARP2 activity by inclusion of α-[32P]-NAD+ in poly(ADP-ribose); details: in the presence of 1 mM compound; read-out: Residual activity of PARP2
T2 construct: made in house
T2 sequence (Q9UGN5 whole entry): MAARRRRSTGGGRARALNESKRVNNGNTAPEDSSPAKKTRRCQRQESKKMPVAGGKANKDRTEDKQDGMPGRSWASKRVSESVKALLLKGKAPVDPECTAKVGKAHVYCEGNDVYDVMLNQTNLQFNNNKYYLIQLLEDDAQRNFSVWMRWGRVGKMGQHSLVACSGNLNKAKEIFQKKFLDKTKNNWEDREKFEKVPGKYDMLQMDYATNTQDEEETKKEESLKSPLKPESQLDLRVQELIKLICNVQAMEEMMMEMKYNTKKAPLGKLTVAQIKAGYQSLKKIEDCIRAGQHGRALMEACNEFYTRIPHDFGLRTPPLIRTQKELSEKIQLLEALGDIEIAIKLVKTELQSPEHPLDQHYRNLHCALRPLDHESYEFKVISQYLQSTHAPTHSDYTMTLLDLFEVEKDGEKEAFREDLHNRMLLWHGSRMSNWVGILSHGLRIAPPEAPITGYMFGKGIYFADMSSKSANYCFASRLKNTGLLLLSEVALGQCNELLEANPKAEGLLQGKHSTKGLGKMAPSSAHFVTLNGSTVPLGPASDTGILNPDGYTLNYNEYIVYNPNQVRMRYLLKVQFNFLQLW
Procedure: Since it has previously been shown that nucleoside derivatives can inhibit enzymes of the PARP family, we also checked whether the studied compounds were able to inhibit the enzymes PARP1 and PARP2. […] Thus, when using our compounds, one cannot expect side effects from PARP1/2.
Purified human recombinant PARP1/2 [65] and [^32P] NAD^+ [27] were prepared as described earlier. The activity of PARP1/2 was evaluated by the rate of incorporation of the radioactive label into the acid-insoluble reaction product—PAR as described previously.

recombinant human Tdp1 = target: T3, recombinant human Tdp1 (Homo sapiens, UniProt Q9NUW8); test: Steady-state kinetics of the Tdp1 reaction, type of inhibition (Vmax, KM); details: dependence of Vmax and KM on inhibitor concentration
T3 construct: made in house
T3 sequence (Q9NUW8 whole entry): as the sequence (Q9NUW8 whole entry) above
Procedure: Then, the values of the Vmax and KM parameters were calculated from the kinetic curves obtained. The conclusion about the type of inhibition was made based on the dependence type of the calculated parameters on the concentration of the inhibitor. […] Such inhibitors, supposedly, will be more specific inhibitors of Tdp1, because they will bind to the enzyme only in the presence of the enzyme-substrate complex. […] For this reason, this compound needs additional study of its inhibition mechanism by other methods.
To determine the kinetic parameters: apparent maximum rate of enzymatic reaction (Vmax), Michaelis constant (KM), and possible inhibition mechanism, steady-state kinetic experiments of Tdp1 enzymatic reaction were carried out at […] fixed concentrations of the substrate with various inhibitor concentrations. The standard reaction mixtures (200 μL) contained 56 nM, 96 nM, 163 nM, 277 nM, 470 nM or 800 nM oligonucleotide substrate, testable inhibitor, 1.5 nM recombinant human Tdp1 and reaction buffer components (50 mM Tris-HCl, pH 8.0, 50 mM NaCl, 7 mM β-mercaptoethanol). After the addition of the enzyme, the reaction mixtures were incubated at a constant temperature of 26 °C and measured in a POLARstar OPTIMA fluorimeter, BMG LABTECH, GmbH, to measure fluorescence every 55 s (Ex485/Em520 nm) during the linear phase (data from 0 to 8 minutes). The initial data (kinetic curves) were obtained in three independent experiments and statistically processed in the software OriginPro 8.6.0.

## O[C@@H]1[C@H](O)[C@@H](COC(c2ccccc2)(c2ccccc2)c2ccccc2)O[C@H]1n1cnc2c(NC(c3ccccc3)(c3ccccc3)c3ccccc3)ncnc21 [compound 5f]
[1]
  IC50: 300 ± 60 nM
Human recombinant PARP2
  remaining activity at 1000 µM: 113 ± 18%
Recombinant human Tdp1
  Type of inhibition of Tdp1: uncompetitive type of inhibition

## O=C(OC[C@H]1O[C@@H](n2cnc3c(Cl)nc(F)nc32)[C@H](OC(=O)c2ccccc2)[C@@H]1OC(=O)c1ccccc1)c1ccccc1 [compound 6c, 2-Fluoro-6-chloro-9-(2,3,5-tri-O-benzoyl-β-D-ribofuranosyl)purine]
[1]
  IC50: 1000 ± 200 nM
Human recombinant PARP2
  remaining activity at 1000 µM: 80 ± 20%
Recombinant human Tdp1
  Type of inhibition of Tdp1: uncompetitive type of inhibition; also recorded: nonlinear dependence

## O=C(OC[C@H]1O[C@@H](n2cnc3c(Cl)nc(Cl)nc32)[C@H](OC(=O)c2ccccc2)[C@@H]1OC(=O)c1ccccc1)c1ccccc1 [compound 6d, 2,6-dichloro-9-(2,3,5-tri-O-benzoyl-β-D-ribofuranosyl)purine]
[1]
  IC50: 820 ± 20 nM
Human recombinant PARP2
  remaining activity at 1000 µM: 86 ± 9%
Recombinant human Tdp1
  Type of inhibition of Tdp1: uncompetitive type of inhibition; also recorded: uncompetitive mechanism
